Measurements from patent US9980943B2, “Methods of treating muscular dystrophy” (BOARD OF REGENTS OF THE NEVADA SYSTEM OF HIGHER EDUCATION, …, priority 2013, dated 2018).
Like-named read-outs stand apart in the source and are kept apart here.

Legend:
Format in all cases: cell-based, mouse
[1] = system: α7 integrin (LacZ reporter in α7+/LacZ myotubes); experiment: Myotube α7 integrin FDG assay (Burkin assay in myotubes, 96-well); conditions: for fold induction at 0.5 µM / fold induction at 1 µM / fold induction at 5 µM / fold induction at 10 µM / fold induction at 20 µM / fold induction at 40 µM: Mus musculus, Myotube, read-out: Burkin Assay in Myotubes, α7 integrin LacZ reporter signal relative to DMSO
[2] = system: α7 integrin (LacZ reporter in α7βgal+/− myoblasts); experiment: Myoblast α7+/LacZ integrin FDG assay (Burkin assay in myoblasts, 96-well); conditions: for fold induction at 0.5 µM / fold induction at 1 µM / fold induction at 5 µM / fold induction at 10 µM / fold induction at 20 µM / fold induction at 40 µM: Mus musculus, Myoblast, 48 h, read-out: Burkin Assay in Myoblasts, signal relative to DMSO
[3] = system: β-galactosidase in CMV-LacZ C2C12 myotubes; experiment: CMV-LacZ secondary screen in C2C12 myotubes (β-Gal stabilizing assay); conditions: for CMV-LACZ in Myotubes (β-galactosidase activity relative to DMSO): CMV-LacZ C2C12 myotubes, 96-well format; for CMV-LACZ in Myotubes, signal relative to DMSO / fold induction at 5 µM / fold induction at 10 µM / fold induction at 20 µM / fold induction at 40 µM: C2C12 CMV-LacZ myotubes, fold relative to DMSO; for fold induction at 5 µM / fold induction at 10 µM / fold induction at 20 µM / fold induction at 40 µM: Mus musculus; for fold induction at 5 µM: C2C12, read-out: CMV-LACZ in Myotubes, signal relative to DMSO, 5 uM; for fold induction at 10 µM: C2C12, read-out: CMV-LACZ in Myotubes, signal relative to DMSO, 10 uM; for fold induction at 20 µM: C2C12, read-out: CMV-LACZ in Myotubes, signal relative to DMSO, 20 uM; for fold induction at 40 µM: C2C12, read-out: CMV-LACZ in Myotubes, signal relative to DMSO, 40 uM
Method in brief: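 β-Gal level was the read-out, measured in a clonal C2C12 line expressing LacZ from a CMV promoter. Dose-response curves used six concentrations, 0.5 μM up to 40 μM, with duplicate points.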

[4] = 0.5 uM, α7+/LacZ myoblasts, 96-well
[5] = 1 uM, α7+/LacZ myoblasts, 96-well
[6] = 5 uM, α7+/LacZ myoblasts, 96-well
[7] = 10 uM, α7+/LacZ myoblasts, 96-well
[8] = 20 uM, α7+/LacZ myoblasts, 96-well
[9] = 40 uM, α7+/LacZ myoblasts, 96-well

Compound | Burkin Assay in Myotubes (signal relative to DMSO) ([1]; 0.5 uM, myotubes) | Burkin Assay in Myotubes (signal relative to DMSO) ([1]; 1 uM, myotubes) | Burkin Assay in Myotubes (signal relative to DMSO) ([1]; 5 uM, myotubes) | Burkin Assay in Myotubes (signal relative to DMSO) ([1]; 10 uM, myotubes) | Burkin Assay in Myotubes (signal relative to DMSO) ([1]; 20 uM, myotubes) | Burkin Assay in Myotubes (signal relative to DMSO) ([1]; 40 uM, myotubes) | Burkin Assay in Myoblasts, value relative to DMSO [2, 4] | Burkin Assay in Myoblasts, value relative to DMSO [2, 5] | Burkin Assay in Myoblasts, value relative to DMSO [2, 6] | Burkin Assay in Myoblasts, value relative to DMSO [2, 7] | Burkin Assay in Myoblasts, value relative to DMSO [2, 8] | Burkin Assay in Myoblasts, value relative to DMSO [2, 9] | CMV-LACZ in Myotubes (β-galactosidase activity relative to DMSO) ([3]; 5 uM) | CMV-LACZ in Myotubes (β-galactosidase activity relative to DMSO) ([3]; 10 uM) | CMV-LACZ in Myotubes (β-galactosidase activity relative to DMSO) ([3]; 20 uM) | CMV-LACZ in Myotubes (β-galactosidase activity relative to DMSO) ([3]; 40 uM) | also measured
CSc1ncccc1C(=O)OCC(=O)c1cc(C)n(C)c1C [MLS002245351-01] | 1.047 | 0.9463 | 1.107 | 1.042 | 1.061 | 1.031 | 1.082 | 1.037 | 1.034 | 0.9704 | 0.9001 | 0.8657 | 0.8306 | 1.001 | 1.009 | 0.9307 | –
CC(Oc1ccccc1)C(=O)N1CCN(C(=O)C(C)Oc2ccccc2)CC1 (stereo not shown) [MLS001162337-01] | 0.6986 | 0.885 | 1.009 | 0.9738 | 1.17 | 1.014 | 1.123 | 1.127 | 1.091 | 1.071 | 0.8789 | 0.8149 | – | – | – | – | CMV-LACZ in Myotubes, signal relative to DMSO ([3]; 5 uM): 0.9904; CMV-LACZ in Myotubes, signal relative to DMSO ([3]; 10 uM): 0.9593; CMV-LACZ in Myotubes, signal relative to DMSO ([3]; 20 uM): 0.8491; CMV-LACZ in Myotubes, signal relative to DMSO ([3]; 40 uM): 1.05
COc1cc2c(cc1NC(=O)Cc1ccc(C)cc1)oc1ccccc12 [MLS000579238-01] | – | – | – | – | – | – | – | – | – | – | – | – | – | – | – | – | fold induction at 0.5 µM ([1]; myotubes, 0.5 uM): 0.951; fold induction at 1 µM ([1]; myotubes, 1 uM): 1.11; fold induction at 5 µM ([1]; myotubes, 5 uM): 1.01; fold induction at 10 µM ([1]; myotubes, 10 uM): 1.1; fold induction at 20 µM ([1]; myotubes, 20 uM): 0.856; fold induction at 40 µM ([1]; myotubes, 40 uM): 0.771; fold induction at 0.5 µM [2, 4]: 0.961; fold induction at 1 µM [2, 5]: 1.11; fold induction at 5 µM [2, 6]: 1.17; fold induction at 10 µM [2, 7]: 1.3; fold induction at 20 µM [2, 8]: 1.11; fold induction at 40 µM [2, 9]: 0.912; fold induction at 5 µM [3]: 0.815; fold induction at 10 µM [3]: 0.872; fold induction at 20 µM [3]: 0.83; fold induction at 40 µM [3]: 0.944
Cc1nc2c([nH]1)OC(N)=C(C#N)C21CCN(Cc2ccccc2)CC1 [MLS000047918-01] | – | – | – | – | – | – | – | – | – | – | – | – | – | – | – | – | fold induction at 0.5 µM [1]: 1.4; fold induction at 1 µM [1]: 0.913; fold induction at 5 µM [1]: 0.899; fold induction at 10 µM [1]: 0.872; fold induction at 20 µM [1]: 0.967; fold induction at 40 µM [1]: 0.945; fold induction at 0.5 µM [2]: 0.873; fold induction at 1 µM [2]: 0.912; fold induction at 5 µM [2]: 0.948; fold induction at 10 µM [2]: 1; fold induction at 20 µM [2]: 0.803; fold induction at 40 µM [2]: 0.78; fold induction at 5 µM [3]: 0.937; fold induction at 10 µM [3]: 0.8; fold induction at 20 µM [3]: 1.04; fold induction at 40 µM [3]: 1.05
C/C(=N\Nc1nncc2ccccc12)c1cccc(OC(F)F)c1 [MLS001175556-01] | 0.949 | 1.028 | 1.1 | 0.9013 | 0.901 | 0.7514 | 0.92 | 0.8625 | 0.9202 | 0.8856 | 0.8956 | 0.8018 | 1.113 | 1.053 | 0.9158 | 1.103 | –
CCCC(=O)Nc1ccccc1NC(=O)c1ccc(OCC)cc1 [MLS000685139-01] | 0.8703 | 0.9202 | 1.128 | 1.24 | 1.102 | 1.267 | 0.8234 | 0.6285 | 0.8416 | 0.776 | 0.9893 | 0.9848 | 0.9362 | 1.036 | 1.031 | 0.9387 | –
Cc1cccc(NC(=O)c2ccc(N3C(=O)C4CCCCC4C3=O)cc2)c1C (stereo not shown) [MLS001147727-01] | – | – | – | – | – | – | – | – | – | – | – | – | – | – | – | – | Burkin Assay in Myotubes, α7 integrin LacZ reporter signal relative to DMSO ([1]; myotubes, 0.5 uM): 0.9937; Burkin Assay in Myotubes, α7 integrin LacZ reporter signal relative to DMSO ([1]; myotubes, 1 uM): 0.7877; Burkin Assay in Myotubes, α7 integrin LacZ reporter signal relative to DMSO ([1]; myotubes, 5 uM): 1.101; Burkin Assay in Myotubes, α7 integrin LacZ reporter signal relative to DMSO ([1]; myotubes, 10 uM): 0.9716; Burkin Assay in Myotubes, α7 integrin LacZ reporter signal relative to DMSO ([1]; myotubes, 20 uM): 1.11; Burkin Assay in Myotubes, α7 integrin LacZ reporter signal relative to DMSO ([1]; myotubes, 40 uM): 0.9652; Burkin Assay in Myoblasts, signal relative to DMSO [2, 4]: 1.212; Burkin Assay in Myoblasts, signal relative to DMSO [2, 5]: 1.039; Burkin Assay in Myoblasts, signal relative to DMSO [2, 6]: 1.029; Burkin Assay in Myoblasts, signal relative to DMSO [2, 7]: 0.8892; Burkin Assay in Myoblasts, signal relative to DMSO [2, 8]: 1.128; Burkin Assay in Myoblasts, signal relative to DMSO [2, 9]: 0.9044; CMV-LACZ in Myotubes, signal relative to DMSO ([3]; 5 uM): 1.12; CMV-LACZ in Myotubes, signal relative to DMSO ([3]; 10 uM): 0.9069; CMV-LACZ in Myotubes, signal relative to DMSO ([3]; 20 uM): 1.2365; CMV-LACZ in Myotubes, signal relative to DMSO ([3]; 40 uM): 1.1835
